Experimental data as given in patent US20120016009A1, “Optimized Methods For Delivery Of DSRNA Targeting The PCSK9 Gene” (priority 2008, published 2012).
In the oligonucleotide strings, read from the 5' end, every base follows the letter of its sugar. An asterisk marks phosphorothioate; unmarked linkages are phosphodiester. Other units and linkages are bracketed, terminal groups are in braces. A string of capitals states the bases alone. d = 2'-deoxy (DNA); m = 2'-O-methyl; r = 2'-OH (RNA)

System: PCSK9 mRNA
Assay: PCSK9 siRNA screening in HepG2 cells (lipofectamine 2000 transfection, PCSK9 mRNA by Quantigene, normalized to GAP-DH)
Type: cell-based, human
Conditions: for Mean percent remaining mRNA transcript at siRNA concentration/in cell type 30 nM/HepG2: 30 nM siRNA; for Mean percent remaining mRNA transcript at siRNA concentration/in cell type 100 nM/HepG2: 100 nM siRNA
Summary of the method: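 PCSK9 silencing was assessed in HepG2 cells by lipofectamine 2000 siRNA transfection in 96-well plates. Twenty-four hours later, lysates were analyzed with the Quantigene Explore Kit, with PCSK9 signal normalized to GAP-DH. Eight datapoints were collected per siRNA, and remaining transcript was expressed as a percentage of cells treated with an unrelated control siRNA duplex.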

Substance	Mean percent remaining mRNA transcript at siRNA concentration/in cell type 30 nM/HepG2 [%]	Mean percent remaining mRNA transcript at siRNA concentration/in cell type 100 nM/HepG2 [%]	Mean percent remaining mRNA transcript at siRNA concentration/in cell type 3 nM/HepG2 (3 nM siRNA) [%]
AD-9640: PCSK9 siRNA (sense rGmUrAmCmCrGrGrGmCrGrGrAmUrGrArAmUrAmCdT*dT; antisense rGmUrArUrUmCrArUrCrCrGrCrCrCrGrGmUrArCdT*dT)	89		
AD-9609: PCSK9 siRNA (sense rCrArCrGrGrUrArCrCrGrGrGrCrGrGrArUrGrAdT*dT; antisense rUrCrArUrCrCrGrCrCrCrGrGrUrArCrCrGrUrGdT*dT)	71	66	
AD-9612: PCSK9 siRNA (sense rArCrCrArCrCrGrGrGrArArArUrCrGrArGrGrGdT*dT; antisense rCrCrCrUrCrGrArUrUrUrCrCrCrGrGrUrGrGrUdT*dT)	122		
AD-9581: PCSK9 siRNA (sense rUrGrCrGrCrGrUrGrCrUrCrArArCrUrGrCrCrAdT*dT; antisense rUrGrGrCrArGrUrUrGrArGrCrArCrGrCrGrCrAdT*dT)	35		
AD-9708: PCSK9 siRNA (sense mCmCrArGmCrAmUmCmCrAmCrGmCmUmUmCmCmUrGdT*dT; antisense mCrArGrGrArArGrCrGrUrGrGrArUrGrCrUrGrGdT*dT)	81		
AD-9522: PCSK9 siRNA (sense rArArGrGrArGrCrArUrGrGrArArUrCrCrCrGrGdT*dT; antisense rCrCrGrGrGrArUrUrCrCrArUrGrCrUrCrCrUrUdT*dT)	59		
AD-9655: PCSK9 siRNA (sense rGrGrGrAmUrAmCmCmUmCrAmCmCrArArGrAmUmCdT*dT; antisense rGrArUrCrUrUrGrGrUrGrArGrGmUrArUrCrCrCdT*dT)	140		
AD-9712: PCSK9 siRNA (sense rGrAmCrAmUmCrAmUmUrGrGmUrGmCmCmUmCmCrAdT*dT; antisense rUrGrGrArGrGmCrArCmCrArArUrGrArUrGrUrCdT*dT)	107		
AD-9735: PCSK9 siRNA (sense mCrAmCrGrGmUrAmCmCrGrGrGmCrGrGrAmUrGrAdT*dT; antisense rUmCrArUrCrCrGrCrCrCrGrGmUrArCrCrGrUrGdT*dT)	115		
AD-9739: PCSK9 siRNA (sense mCrGrArGrGrGmCrArGrGrGmUmCrAmUrGrGmUmCdT*dT; antisense rGrArCmCrArUrGrArCrCrCrUrGrCrCrCrUrCrGdT*dT)	109		
AD-9536: PCSK9 siRNA (sense rUrUrArUrUrCrGrGrArArArArGrCrCrArGrCrUdT*dT; antisense rArGrCrUrGrGrCrUrUrUrUrCrCrGrArArUrArAdT*dT)	157		
AD-9535: PCSK9 siRNA (sense rGrArGrUrGrArCrCrArCrCrGrGrGrArArArUrCdT*dT; antisense rGrArUrUrUrCrCrCrGrGrUrGrGrUrCrArCrUrCdT*dT)	73	48	
AD-9726: PCSK9 siRNA (sense rGmUmCrGmUrGmCmUrGrGmUmCrAmCmCrGmCmUrGdT*dT; antisense mCrArGrCrGrGrUrGrArCmCrArGmCrArCrGrArCdT*dT)	95		
AD-9539: PCSK9 siRNA (sense rGrGrUrGrGrArGrGrUrGrUrArUrCrUrCrCrUrAdT*dT; antisense rUrArGrGrArGrArUrArCrArCrCrUrCrCrArCrCdT*dT)	63	56	
AD-9575: PCSK9 siRNA (sense rCrCrGrCrUrGrCrCrGrGrCrArArCrUrUrCrCrGdT*dT; antisense rCrGrGrArArGrUrUrGrCrCrGrGrCrArGrCrGrGdT*dT)	120		
AD-9744: PCSK9 siRNA (sense rGrArGmCrAmUrGrGrArAmUmCmCmCrGrGmCmCmCdT*dT; antisense rGrGrGrCrCrGrGrGrArUrUrCmCrArUrGrCrUrCdT*dT)	91		
AD-9602: PCSK9 siRNA (sense rCrArGrCrGrGrCrCrGrGrGrArUrGrCrCrGrGrCdT*dT; antisense rGrCrCrGrGrCrArUrCrCrCrGrGrCrCrGrCrUrGdT*dT)	126		
AD-9672: PCSK9 siRNA (sense mUrArGmCmCmUmUrGmCrGmUmUmCmCrGrArGrGrAdT*dT; antisense rUrCrCrUrCrGrGrArArCrGmCrArArGrGrCmUrAdT*dT)	57		
AD-9733: PCSK9 siRNA (sense rGrGrArGmCmUrGrGmUrGmCmUrArGmCmCmUmUrGdT*dT; antisense mCrArArGrGrCmUrArGmCrArCmCrArGrCrUrCrCdT*dT)	78		73
